Experimental data: PubChem BioAssay (NCI)
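1) Cells in 96-well plates. 2) Compound, 48 h, 5 concentrations. 3) Linear interpolation between surrounding doses. 4) Unreached endpoint = highest concentration. TGI: total growth inhibition.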

What was measured:
Assay in all cases: DTP human tumour cell line panel, 48 h
786-0 renal = test system: 786-0 renal
A498 renal = test system: A498 renal
A549 NSCLC = test system: A549 NSCLC
ACHN renal = test system: ACHN renal
BT-549 breast = test system: BT-549 breast
CCRF-CEM leukemia = test system: CCRF-CEM leukemia
COLO 205 colon = test system: COLO 205 colon
DU-145 prostate = test system: DU-145 prostate
EKVX NSCLC = test system: EKVX NSCLC
HCC-2998 colon = test system: HCC-2998 colon
HCT-116 colon = test system: HCT-116 colon
HCT-15 colon = test system: HCT-15 colon
HL-60(TB) leukemia = test system: HL-60(TB) leukemia
HOP-62 NSCLC = test system: HOP-62 NSCLC
HOP-92 NSCLC = test system: HOP-92 NSCLC
HS 578T breast = test system: HS 578T breast
HT29 colon = test system: HT29 colon
IGROV1 ovarian = test system: IGROV1 ovarian
K-562 leukemia = test system: K-562 leukemia
KM12 colon = test system: KM12 colon
LOX IMVI melanoma = test system: LOX IMVI melanoma
M14 melanoma = test system: M14 melanoma
MALME-3M melanoma = test system: MALME-3M melanoma
MCF7 breast = test system: MCF7 breast
MDA-MB-231 breast = test system: MDA-MB-231 breast
MDA-MB-435 = test system: MDA-MB-435
MDA-N = test system: MDA-N
MOLT-4 leukemia = test system: MOLT-4 leukemia
NCI-H226 lung = test system: NCI-H226 lung
NCI-H23 lung = test system: NCI-H23 lung
NCI-H460 lung = test system: NCI-H460 lung
NCI-H522 lung = test system: NCI-H522 lung
NCI/ADR-RES ovarian = test system: NCI/ADR-RES ovarian
OVCAR-3 ovarian = test system: OVCAR-3 ovarian
OVCAR-4 ovarian = test system: OVCAR-4 ovarian
OVCAR-5 ovarian = test system: OVCAR-5 ovarian
OVCAR-8 ovarian = test system: OVCAR-8 ovarian
PC-3 prostate = test system: PC-3 prostate
RPMI-8226 leukemia = test system: RPMI-8226 leukemia
RXF 393 renal = test system: RXF 393 renal
SF-268 CNS = test system: SF-268 CNS
SF-295 CNS = test system: SF-295 CNS
SF-539 CNS = test system: SF-539 CNS
SK-MEL-2 melanoma = test system: SK-MEL-2 melanoma
SK-MEL-5 melanoma = test system: SK-MEL-5 melanoma
SK-OV-3 ovarian = test system: SK-OV-3 ovarian
SN12C renal = test system: SN12C renal
SNB-19 CNS = test system: SNB-19 CNS
SNB-75 CNS = test system: SNB-75 CNS
SR leukemia = test system: SR leukemia
SW-620 colon = test system: SW-620 colon
T-47D breast = test system: T-47D breast
TK-10 renal = test system: TK-10 renal
U251 CNS = test system: U251 CNS
UACC-257 melanoma = test system: UACC-257 melanoma
UACC-62 melanoma = test system: UACC-62 melanoma
UO-31 renal = test system: UO-31 renal
CAKI-1 renal = test system: CAKI-1 renal
SK-MEL-28 melanoma = test system: SK-MEL-28 melanoma

## CCCCc1ccc(Nc2nc(Cl)c3ncn(COCCOC(C)=O)c3n2)cc1
786-0 renal
  TGI: 29.5 µM
A498 renal
  TGI: 59.3 µM
A549 NSCLC
  TGI: 51.2 µM
ACHN renal
  TGI: 32.7 µM
BT-549 breast
  TGI: 35.8 µM
CCRF-CEM leukemia
  TGI: > 100 µM
COLO 205 colon
  TGI: 48.5 µM
DU-145 prostate
  TGI: 29.7 µM
EKVX NSCLC
  TGI: 20.3 µM
HCC-2998 colon
  TGI: 24.5 µM
HCT-116 colon
  TGI: 31.7 µM
HCT-15 colon
  TGI: 31.6 µM
HL-60(TB) leukemia
  TGI: 45.6 µM
HOP-62 NSCLC
  TGI: 30.8 µM
HOP-92 NSCLC
  TGI: 5.33 µM
HS 578T breast
  TGI: 52.7 µM
HT29 colon
  TGI: 32.2 µM
IGROV1 ovarian
  TGI: 31.6 µM
K-562 leukemia
  TGI: 55.5 µM
KM12 colon
  TGI: 41.3 µM
LOX IMVI melanoma
  TGI: 27.9 µM
M14 melanoma
  TGI: 36.7 µM
MALME-3M melanoma
  TGI: 31.7 µM
MCF7 breast
  TGI: 93.7 µM
MDA-MB-231 breast
  TGI: 30.6 µM
MDA-MB-435
  TGI: 33.1 µM
MDA-N
  TGI: 37 µM
MOLT-4 leukemia
  TGI: 61.8 µM
NCI-H226 lung
  TGI: 50.7 µM
NCI-H23 lung
  TGI: 31.4 µM
NCI-H460 lung
  TGI: 32.9 µM
NCI-H522 lung
  TGI: 42.9 µM
NCI/ADR-RES ovarian
  TGI: 35.7 µM
OVCAR-3 ovarian
  TGI: 43.4 µM
OVCAR-4 ovarian
  TGI: > 100 µM
OVCAR-5 ovarian
  TGI: 35.5 µM
OVCAR-8 ovarian
  TGI: 32.6 µM
PC-3 prostate
  TGI: 32.2 µM
RPMI-8226 leukemia
  TGI: 55.4 µM
RXF 393 renal
  TGI: 38.2 µM
SF-268 CNS
  TGI: 36.9 µM
SF-295 CNS
  TGI: 33.9 µM
SF-539 CNS
  TGI: 63.3 µM
SK-MEL-2 melanoma
  TGI: 31.5 µM
SK-MEL-5 melanoma
  TGI: 30.9 µM
SK-OV-3 ovarian
  TGI: 76.9 µM
SN12C renal
  TGI: 39.8 µM
SNB-19 CNS
  TGI: 38.7 µM
SNB-75 CNS
  TGI: 44.3 µM
SR leukemia
  TGI: 53.8 µM
SW-620 colon
  TGI: 43.8 µM
T-47D breast
  TGI: 65.9 µM
TK-10 renal
  TGI: 35.1 µM
U251 CNS
  TGI: 35 µM
UACC-257 melanoma
  TGI: 36.4 µM
UACC-62 melanoma
  TGI: 31.9 µM
UO-31 renal
  TGI: 29.7 µM

## Nc1cc(F)ccc1CC(=O)O
786-0 renal
  TGI: > 100 µM
A498 renal
  TGI: > 100 µM
A549 NSCLC
  TGI: > 100 µM
ACHN renal
  TGI: > 100 µM
BT-549 breast
  TGI: > 100 µM
CAKI-1 renal
  TGI: > 100 µM
CCRF-CEM leukemia
  TGI: > 100 µM
COLO 205 colon
  TGI: > 100 µM
DU-145 prostate
  TGI: > 100 µM
EKVX NSCLC
  TGI: > 100 µM
HCC-2998 colon
  TGI: > 100 µM
HCT-116 colon
  TGI: > 100 µM
HCT-15 colon
  TGI: > 100 µM
HL-60(TB) leukemia
  TGI: > 100 µM
HOP-62 NSCLC
  TGI: > 100 µM
HS 578T breast
  TGI: > 100 µM
HT29 colon
  TGI: > 100 µM
IGROV1 ovarian
  TGI: > 100 µM
K-562 leukemia
  TGI: > 100 µM
KM12 colon
  TGI: > 100 µM
LOX IMVI melanoma
  TGI: > 100 µM
M14 melanoma
  TGI: > 100 µM
MALME-3M melanoma
  TGI: > 100 µM
MCF7 breast
  TGI: > 100 µM
MDA-MB-231 breast
  TGI: > 100 µM
MDA-MB-435
  TGI: > 100 µM
MDA-N
  TGI: > 100 µM
MOLT-4 leukemia
  TGI: > 100 µM
NCI-H226 lung
  TGI: > 100 µM
NCI-H23 lung
  TGI: > 100 µM
NCI-H522 lung
  TGI: > 100 µM
NCI/ADR-RES ovarian
  TGI: > 100 µM
OVCAR-5 ovarian
  TGI: > 100 µM
OVCAR-8 ovarian
  TGI: > 100 µM
PC-3 prostate
  TGI: > 100 µM
RPMI-8226 leukemia
  TGI: > 100 µM
RXF 393 renal
  TGI: > 100 µM
SF-268 CNS
  TGI: > 100 µM
SF-295 CNS
  TGI: > 100 µM
SF-539 CNS
  TGI: > 100 µM
SK-MEL-2 melanoma
  TGI: > 100 µM
SK-MEL-28 melanoma
  TGI: > 100 µM
SK-MEL-5 melanoma
  TGI: > 100 µM
SK-OV-3 ovarian
  TGI: > 100 µM
SN12C renal
  TGI: > 100 µM
SNB-19 CNS
  TGI: > 100 µM
SNB-75 CNS
  TGI: > 100 µM
SR leukemia
  TGI: > 100 µM
SW-620 colon
  TGI: > 100 µM
T-47D breast
  TGI: > 100 µM
TK-10 renal
  TGI: > 100 µM
U251 CNS
  TGI: > 100 µM
UACC-257 melanoma
  TGI: > 100 µM
UACC-62 melanoma
  TGI: > 100 µM
UO-31 renal
  TGI: > 100 µM
